Experimental data reported in PubChem BioAssay AID1259407 (Chemical Carcinogenesis Research Information System (CCRIS), 2018).
Active and inactive are the calls of the source. How the calls were made is not given here.

System: CCRIS mutagenicity, Ames/micronucleus/aberration tests
Assay: CCRIS mutagenicity studies
[1] = Test System: AMES SALMONELLA TYPHIMURIUM, Strain/Indicator: TA98, Metabolic Activation: NONE, Method: STANDARD PLATE
[2] = Test System: AMES SALMONELLA TYPHIMURIUM, Strain/Indicator: TA100, Metabolic Activation: NONE, Method: STANDARD PLATE
[3] = Test System: AMES SALMONELLA TYPHIMURIUM, Strain/Indicator: TA1535, Metabolic Activation: NONE, Method: STANDARD PLATE
[4] = Test System: AMES SALMONELLA TYPHIMURIUM, Strain/Indicator: TA1537, Metabolic Activation: NONE, Method: STANDARD PLATE
[5] = Test System: AMES SALMONELLA TYPHIMURIUM, Strain/Indicator: TA1538, Metabolic Activation: NONE, Method: STANDARD PLATE
[6] = Test System: AMES SALMONELLA TYPHIMURIUM, Strain/Indicator: TA98, Metabolic Activation: RAT, LIVER, S-9, AROCLOR 1254, Method: STANDARD PLATE
[7] = Test System: AMES SALMONELLA TYPHIMURIUM, Strain/Indicator: TA102, Metabolic Activation: NONE, Method: PREINCUBATION
[8] = Test System: AMES SALMONELLA TYPHIMURIUM, Strain/Indicator: TA98, Metabolic Activation: NONE, Method: PREINCUBATION
[9] = Test System: AMES SALMONELLA TYPHIMURIUM, Strain/Indicator: TA98, Metabolic Activation: RAT, LIVER, S-9, AROCLOR 1254, Method: PREINCUBATION
[10] = Test System: AMES SALMONELLA TYPHIMURIUM, Strain/Indicator: TA100, Metabolic Activation: NONE, Method: PREINCUBATION
[11] = Test System: AMES SALMONELLA TYPHIMURIUM, Strain/Indicator: TA100, Metabolic Activation: RAT, LIVER, S-9, AROCLOR 1254, Method: PREINCUBATION

Measured: mutagenic call

CCCCCCCCCCCCCCCCCCCCCCO
inactive: [1] inactive; negative | Test System: AMES SALMONELLA TYPHIMURIUM, Strain/Indicator: TA98, Metabolic Activation: RAT LIVER S-9, Method: STANDARD PLATE inactive; negative | [2] inactive; negative | Test System: AMES SALMONELLA TYPHIMURIUM, Strain/Indicator: TA100, Metabolic Activation: RAT LIVER S-9, Method: STANDARD PLATE inactive; negative | [3] inactive; negative | Test System: AMES SALMONELLA TYPHIMURIUM, Strain/Indicator: TA1535, Metabolic Activation: RAT LIVER S-9, Method: STANDARD PLATE inactive; negative | [4] inactive; negative | Test System: AMES SALMONELLA TYPHIMURIUM, Strain/Indicator: TA1537, Metabolic Activation: RAT LIVER S-9, Method: STANDARD PLATE inactive; negative | [5] inactive; negative | Test System: AMES SALMONELLA TYPHIMURIUM, Strain/Indicator: TA1538, Metabolic Activation: RAT LIVER S-9, Method: STANDARD PLATE inactive; negative | Test System: CHINESE HAMSTER V-79, Strain/Indicator: V-79 (HGPRT)/THIOGUANINE, Metabolic Activation: NONE, Method: STANDARD PLATE inactive; negative | Test System: CHINESE HAMSTER V-79, Strain/Indicator: V-79 (HGPRT)/THIOGUANINE, Metabolic Activation: RAT LIVER S-9, Method: STANDARD PLATE inactive; negative

O=C1Cc2cc3cc([N+](=O)[O-])ccc3cc2[C@H](O)[C@H]1O
inactive: [1] inactive; negative | [6] inactive; negative

N#C/C(=C/C=C/c1ccccc1)c1ccc(F)cc1
active: Test System: AMES SALMONELLA TYPHIMURIUM, Strain/Indicator: TA97A, Metabolic Activation: NONE, Method: STANDARD PLATE active; positive
inactive: [2] inactive; negative

CC(=C/C=C/C(C)=C/C=C/C=C(C)/C=C/C=C(C)/C=C/C(=O)O)/C=C/C(=O)O
inactive: Test System: AMES SALMONELLA TYPHIMURIUM, Strain/Indicator: TA97, Metabolic Activation: NONE, Method: PREINCUBATION inactive; negative | Test System: AMES SALMONELLA TYPHIMURIUM, Strain/Indicator: TA97, Metabolic Activation: S-9, Method: PREINCUBATION inactive; negative | [7] inactive; negative | Test System: AMES SALMONELLA TYPHIMURIUM, Strain/Indicator: TA102, Metabolic Activation: S-9, Method: PREINCUBATION inactive; negative

Cc1cnc(C)c(C)n1
inactive: [8] inactive; negative | [9] inactive; negative | [10] inactive; negative | [11] inactive; negative | [7] inactive; negative | Test System: AMES SALMONELLA TYPHIMURIUM, Strain/Indicator: TA102, Metabolic Activation: RAT, LIVER, S-9, AROCLOR 1254, Method: PREINCUBATION inactive; negative

CCCCC/C=C/C=C/C=O
inactive: Test System: AMES SALMONELLA TYPHIMURIUM, Strain/Indicator: TA98, Metabolic Activation: HAMSTER, LIVER, S-9, AROCLOR 1254, Method: STANDARD PLATE inactive; negative | [1] inactive; negative | [6] inactive; negative | Test System: AMES SALMONELLA TYPHIMURIUM, Strain/Indicator: TA100, Metabolic Activation: HAMSTER, LIVER, S-9, AROCLOR 1254, Method: STANDARD PLATE inactive; negative | [2] inactive; negative | Test System: AMES SALMONELLA TYPHIMURIUM, Strain/Indicator: TA100, Metabolic Activation: RAT, LIVER, S-9, AROCLOR 1254, Method: STANDARD PLATE inactive; negative | Test System: AMES SALMONELLA TYPHIMURIUM, Strain/Indicator: TA1535, Metabolic Activation: HAMSTER, LIVER, S-9, AROCLOR 1254, Method: STANDARD PLATE inactive; negative | [3] inactive; negative | Test System: AMES SALMONELLA TYPHIMURIUM, Strain/Indicator: TA1535, Metabolic Activation: RAT, LIVER, S-9, AROCLOR 1254, Method: STANDARD PLATE inactive; negative | Test System: AMES SALMONELLA TYPHIMURIUM, Strain/Indicator: TA1537, Metabolic Activation: HAMSTER, LIVER, S-9, AROCLOR 1254, Method: STANDARD PLATE inactive; negative | [4] inactive; negative | Test System: AMES SALMONELLA TYPHIMURIUM, Strain/Indicator: TA1537, Metabolic Activation: RAT, LIVER, S-9, AROCLOR 1254, Method: STANDARD PLATE inactive; negative | Test System: AMES SALMONELLA TYPHIMURIUM, Strain/Indicator: TA1538, Metabolic Activation: HAMSTER, LIVER, S-9, AROCLOR 1254, Method: STANDARD PLATE inactive; negative | [5] inactive; negative | Test System: AMES SALMONELLA TYPHIMURIUM, Strain/Indicator: TA1538, Metabolic Activation: RAT, LIVER, S-9, AROCLOR 1254, Method: STANDARD PLATE inactive; negative | Test System: MOUSE LYMPHOMA, Strain/Indicator: L5178Y (TK+/TK-), Metabolic Activation: NONE, Method: SUSPENSION/PLATE inactive; negative. reevaluation of results: negative | Test System: MOUSE LYMPHOMA, Strain/Indicator: L5178Y (TK+/TK-), Metabolic Activation: RAT, LIVER, S-9, AROCLOR 1254, Method: SUSPENSION/PLATE inactive; negative. reevaluation of results: negative

[Li+]
inactive: Test System: AMES SALMONELLA TYPHIMURIUM, Strain/Indicator: TA98, Metabolic Activation: HAMSTER, LIVER, S-9, AROCLOR 1254, Method: PREINCUBATION inactive; negative | [8] inactive; negative | [9] inactive; negative | Test System: AMES SALMONELLA TYPHIMURIUM, Strain/Indicator: TA100, Metabolic Activation: HAMSTER, LIVER, S-9, AROCLOR 1254, Method: PREINCUBATION inactive; negative | [10] inactive; negative | [11] inactive; negative | Test System: AMES SALMONELLA TYPHIMURIUM, Strain/Indicator: TA1535, Metabolic Activation: HAMSTER, LIVER, S-9, AROCLOR 1254, Method: PREINCUBATION inactive; negative | Test System: AMES SALMONELLA TYPHIMURIUM, Strain/Indicator: TA1535, Metabolic Activation: NONE, Method: PREINCUBATION inactive; negative | Test System: AMES SALMONELLA TYPHIMURIUM, Strain/Indicator: TA1535, Metabolic Activation: RAT, LIVER, S-9, AROCLOR 1254, Method: PREINCUBATION inactive; negative | Test System: AMES SALMONELLA TYPHIMURIUM, Strain/Indicator: TA1537, Metabolic Activation: HAMSTER, LIVER, S-9, AROCLOR 1254, Method: PREINCUBATION inactive; negative | Test System: AMES SALMONELLA TYPHIMURIUM, Strain/Indicator: TA1537, Metabolic Activation: NONE, Method: PREINCUBATION inactive; negative | Test System: AMES SALMONELLA TYPHIMURIUM, Strain/Indicator: TA1537, Metabolic Activation: RAT, LIVER, S-9, AROCLOR 1254, Method: PREINCUBATION inactive; negative | Test System: E. COLI, Strain/Indicator: WP2 UVRA, Metabolic Activation: NONE, Method: SPOT TEST inactive; negative

CC[N+](=O)[O-]
inactive: [8] inactive; negative | Test System: AMES SALMONELLA TYPHIMURIUM, Strain/Indicator: TA98, Metabolic Activation: RAT, LIVER, S-9, KANECHLOR 500, Method: PREINCUBATION inactive; negative | [10] inactive; negative | Test System: AMES SALMONELLA TYPHIMURIUM, Strain/Indicator: TA100, Metabolic Activation: RAT, LIVER, S-9, KANECHLOR 500, Method: PREINCUBATION inactive; negative | [7] inactive; negative | Test System: E. COLI, Strain/Indicator: WP2 UVRA (PKM101), Metabolic Activation: NONE, Method: PREINCUBATION inactive; negative | Test System: E. COLI, Strain/Indicator: WP2 UVRA (PKM101), Metabolic Activation: RAT, LIVER, S-9, KANECHLOR 500, Method: PREINCUBATION inactive; negative

O=C(Nc1ccc([N+](=O)[O-])cc1)c1csc([N+](=O)[O-])c1
active: [1] active; positive | [2] active; positive
